The subject of series [1] is Staphylococcus aureus. The series can be described thus: Antibacterial activity against methicillin-resistant Staphylococcus aureus after 24 hrs. In kind it is functional.
The nature of series [2]: Toxicity assessed as haemolytic activity against human erythrocytes at 175 uM. In kind it is cell-based, Erythrocyte. The settings on record: read-out: Activity.
Series [3] deals with T1, Phospholipase B (Cryptococcus neoformans) (UniProt Q9P8P2).
T1 sequence (whole entry): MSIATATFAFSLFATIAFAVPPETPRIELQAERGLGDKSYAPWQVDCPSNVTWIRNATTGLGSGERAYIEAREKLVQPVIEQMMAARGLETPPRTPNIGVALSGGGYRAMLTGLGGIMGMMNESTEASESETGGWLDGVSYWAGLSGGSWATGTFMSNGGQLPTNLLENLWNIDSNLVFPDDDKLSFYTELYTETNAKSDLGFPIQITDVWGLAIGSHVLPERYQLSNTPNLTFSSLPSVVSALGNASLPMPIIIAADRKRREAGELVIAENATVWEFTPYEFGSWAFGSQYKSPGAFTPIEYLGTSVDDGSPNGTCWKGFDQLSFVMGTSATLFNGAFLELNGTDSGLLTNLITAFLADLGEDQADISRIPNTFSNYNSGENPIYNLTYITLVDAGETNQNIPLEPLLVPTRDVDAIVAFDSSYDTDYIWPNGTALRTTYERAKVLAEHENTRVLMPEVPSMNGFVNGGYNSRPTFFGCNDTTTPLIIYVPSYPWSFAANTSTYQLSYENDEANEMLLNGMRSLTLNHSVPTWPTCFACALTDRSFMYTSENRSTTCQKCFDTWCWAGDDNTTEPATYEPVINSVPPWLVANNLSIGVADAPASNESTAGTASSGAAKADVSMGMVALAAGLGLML
The series is described as follows: Inhibition of […] activity of Cryptococcus neoformans var. grubi H99 secreted PLB1 at 25 uM by radiometric assay method.

In series [4] the target is T1, Phospholipase B (Cryptococcus neoformans). The series can be described thus: Inhibition of […] activity of Cryptococcus neoformans var. grubi H99 secreted PLB1 at 250 uM by radiometric assay method.
Series [5] is described as follows: Toxicity assessed as haemolytic activity against human erythrocytes at 17.5 uM. The format is cell-based, Erythrocyte. The settings on record: read-out: Activity.
A short description of series [6]: Toxicity assessed as haemolytic activity against human erythrocytes at 350 uM. The format is cell-based, Erythrocyte. The following applies: read-out: Activity.
For series [7], the target named is T1, Phospholipase B (Cryptococcus neoformans). The series can be described thus: Inhibition of lysophosphatidic acid acyltransferase activity of Cryptococcus neoformans var. grubi H99 secreted PLB1 at 25 uM by radiometric assay method.
The subject of the next series is Candida albicans. The series can be described thus: Antifungal activity against Candida albicans ATCC 10231. The format is functional.
Another series has as its system Cryptococcus neoformans. The series can be described thus: Antifungal activity against Cryptococcus neoformans ATCC 90112. In kind it is functional.
Another series has as its system Streptococcus pneumoniae. The series is described as follows: Antibacterial activity against Streptococcus pneumoniae ATCC 46919 after 24 hrs. The settings on record: ATCC 46919, 24 h. In kind it is functional.
Series [8] is described as follows: Toxicity assessed as haemolytic activity against human erythrocytes at 44 uM. The following applies: read-out: Activity. The format is cell-based, Erythrocyte.
Series [9] is described as follows: Toxicity assessed as haemolytic activity against human erythrocytes at 88 uM. The format is cell-based, Erythrocyte. The following applies: read-out: Activity.
For the next series, the system named is Enterococcus. The series is described as follows: Antibacterial activity against vancomycin-resistant Enterococcus ATCC 51299 after 24 hrs. The format is functional. The following applies: ATCC 51299, 24 h.
Series [10] deals with Staphylococcus aureus. The series can be described thus: Antibacterial activity against Staphylococcus aureus ATCC 25923 after 24 hrs. The format is functional. The following applies: ATCC 25923, 24 h.
Series [11] can be described thus: Toxicity assessed as haemolytic activity against human erythrocytes at 3.5 uM. The format is cell-based, Erythrocyte. The settings on record: read-out: Activity.
The test system of another series is Escherichia coli. The series is described as follows: Antibacterial activity against Escherichia coli ATCC 25922 after 24 hrs. In kind it is functional. The following applies: ATCC 25922, 24 h.
Series [12] has as its target T1, Phospholipase B (Cryptococcus neoformans). The series is described as follows: Inhibition of lysophosphatidic acid acyltransferase activity of Cryptococcus neoformans var. grubi H99 secreted PLB1 at 250 uM by radiometric assay method.
The test system of the next series is Pseudomonas aeruginosa. The series is described as follows: Antibacterial activity against Pseudomonas aeruginosa ATCC 27853 after 24 hrs. The following applies: ATCC 27853, 24 h. In kind it is functional.

The text below walks through data of ChEMBL document CHEMBL1143710, “Synthesis, antifungal and antimicrobial activity of alkylphospholipids” (Bioorg Med Chem, 2007).

As a reminder, the MIC is the least concentration at which growth counts as inhibited.

≈ marks a conversion by molar mass, not a printed value. Calls of active or inactive are those of the source. No cut-off for these calls is given here.

For `CCCCCCCCCCCCCCCCOP(=O)([O-])OCC[N+](C)(C)C` [MILTEFOSINE], the MIC with Staphylococcus aureus [1] is 22 µM (≈ 8.97 µg/mL); against Candida albicans, 5.5 µM (≈ 2.24 µg/mL); against Cryptococcus neoformans, 2.75 µM (≈ 1.12 µg/mL); in the series with Streptococcus pneumoniae, 11 µM (≈ 4.48 µg/mL); in the series with Enterococcus it was 44 µM (≈ 17.9 µg/mL); in the series on Staphylococcus aureus [10], 44 µM (≈ 17.9 µg/mL). For the same compound, the values for the MIC against Escherichia coli and in the series with Pseudomonas aeruginosa were greater than 350 µM and greater than 600 µM, respectively. Also, the hemolysis at 175 µM in series [2] is 95%. Also, the outcome in [3] was inactive. Further, the outcome in [4], in [7] and in series [12] was Active. In addition, the hemolysis at 17.5 µM in series [5] is 0%. In addition, in [6], the hemolysis at 350 µM was 100%. Besides, the hemolysis at 44 µM in [8] was 5%. Also, the hemolysis at 88 µM in [9] turned out to be 25%. The hemolysis at 3.5 µM in series [11] stood at 0%.
